The source made the active and inactive calls.
Columns and labels:
[1] = Counterscreen for AddAB inhibitors: absorbance-based bacterial cell-based high throughput dose response assay for inhibitors of bacterial viability. [Related pubchem assays (depositor defined):AID435030, AID449728, AID449731, AID488942, AID488955, AID488956]; type: functional
[2] = A cytotoxicity screen of small molecule inhibitors of the PhoP region in Salmonella typhi identified in the primary screen. [Related pubchem assays: 1850, 1864, 1985 ]; type: functional
[3] = target: Disintegrin and metalloproteinase domain-containing protein 17 (Homo sapiens, UniProt P78536); assay: exosite inhibitors of ADAM17, dose response, biochemical (AID 743260)
Paired box protein Pax-8 = Paired box protein Pax-8 (Homo sapiens, UniProt Q06710); assay: PAX8 transcriptional activity inhibition in RMG-I – RMG-I cells, luciferase, cherry-pick, dose response (AID 687027); type: functional, cell-based;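 note: luciferase reporter driven by Pax8 target thyroperoxidase promoter measured by SteadyGlo luminescence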
Exodeoxyribonuclease V = target: T1, Exodeoxyribonuclease V (Escherichia coli (strain K12), UniProt P04993+P07648+P08394); assay: RecBCD inhibition via phage-restricted bacterial growth – absorbance, V66 E. coli, mutant T4 phage, counter-screen for AddAB inhibitor project, dose response (AID 492957); type: functional, cell-based, Escherichia coli str. K-12 substr. MG1655
T1 sequence (P04993 whole entry): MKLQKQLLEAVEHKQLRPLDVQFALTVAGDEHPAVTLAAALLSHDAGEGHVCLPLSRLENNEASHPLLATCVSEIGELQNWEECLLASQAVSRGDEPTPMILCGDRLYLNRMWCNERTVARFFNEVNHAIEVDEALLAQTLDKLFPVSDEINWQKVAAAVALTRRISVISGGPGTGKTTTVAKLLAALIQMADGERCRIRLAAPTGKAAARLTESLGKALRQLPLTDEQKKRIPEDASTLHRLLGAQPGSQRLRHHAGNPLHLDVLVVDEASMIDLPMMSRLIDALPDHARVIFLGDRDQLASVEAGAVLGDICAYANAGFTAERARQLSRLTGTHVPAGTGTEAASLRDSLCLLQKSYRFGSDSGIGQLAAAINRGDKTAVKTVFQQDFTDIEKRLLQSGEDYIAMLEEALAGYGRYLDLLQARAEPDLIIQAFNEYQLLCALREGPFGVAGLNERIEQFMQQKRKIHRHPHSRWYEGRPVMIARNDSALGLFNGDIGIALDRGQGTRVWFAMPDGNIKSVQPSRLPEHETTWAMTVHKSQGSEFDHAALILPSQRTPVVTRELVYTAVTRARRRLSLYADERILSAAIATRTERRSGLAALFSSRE
T1 sequence (P07648 whole entry): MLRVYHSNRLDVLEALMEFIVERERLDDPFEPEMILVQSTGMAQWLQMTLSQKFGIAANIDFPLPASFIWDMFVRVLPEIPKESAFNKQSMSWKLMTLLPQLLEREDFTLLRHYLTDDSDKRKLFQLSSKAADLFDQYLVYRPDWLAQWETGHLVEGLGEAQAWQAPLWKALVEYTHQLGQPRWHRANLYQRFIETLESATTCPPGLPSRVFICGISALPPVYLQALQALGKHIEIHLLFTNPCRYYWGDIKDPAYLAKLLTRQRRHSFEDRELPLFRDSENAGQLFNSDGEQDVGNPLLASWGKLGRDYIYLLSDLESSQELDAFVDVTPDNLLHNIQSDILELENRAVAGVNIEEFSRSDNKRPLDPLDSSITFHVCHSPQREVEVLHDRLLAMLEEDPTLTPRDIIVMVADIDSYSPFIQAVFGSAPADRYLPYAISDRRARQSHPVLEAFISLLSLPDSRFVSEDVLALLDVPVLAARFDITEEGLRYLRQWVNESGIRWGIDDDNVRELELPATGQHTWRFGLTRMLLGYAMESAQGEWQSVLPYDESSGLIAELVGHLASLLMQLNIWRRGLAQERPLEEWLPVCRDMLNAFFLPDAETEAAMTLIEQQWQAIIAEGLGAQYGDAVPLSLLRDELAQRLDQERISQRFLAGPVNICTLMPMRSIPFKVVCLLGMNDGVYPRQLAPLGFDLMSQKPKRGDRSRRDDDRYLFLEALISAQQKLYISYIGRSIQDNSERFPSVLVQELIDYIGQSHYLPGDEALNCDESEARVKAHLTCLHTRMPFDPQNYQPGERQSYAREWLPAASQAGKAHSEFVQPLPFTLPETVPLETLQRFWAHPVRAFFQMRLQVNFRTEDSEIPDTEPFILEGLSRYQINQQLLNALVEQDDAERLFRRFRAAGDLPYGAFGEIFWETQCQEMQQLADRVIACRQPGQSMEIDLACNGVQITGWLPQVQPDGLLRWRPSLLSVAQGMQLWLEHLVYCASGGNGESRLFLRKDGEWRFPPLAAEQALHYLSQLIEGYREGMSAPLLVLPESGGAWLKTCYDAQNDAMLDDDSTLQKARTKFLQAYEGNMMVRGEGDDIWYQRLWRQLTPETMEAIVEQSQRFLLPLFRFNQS
T1 sequence (P08394 whole entry): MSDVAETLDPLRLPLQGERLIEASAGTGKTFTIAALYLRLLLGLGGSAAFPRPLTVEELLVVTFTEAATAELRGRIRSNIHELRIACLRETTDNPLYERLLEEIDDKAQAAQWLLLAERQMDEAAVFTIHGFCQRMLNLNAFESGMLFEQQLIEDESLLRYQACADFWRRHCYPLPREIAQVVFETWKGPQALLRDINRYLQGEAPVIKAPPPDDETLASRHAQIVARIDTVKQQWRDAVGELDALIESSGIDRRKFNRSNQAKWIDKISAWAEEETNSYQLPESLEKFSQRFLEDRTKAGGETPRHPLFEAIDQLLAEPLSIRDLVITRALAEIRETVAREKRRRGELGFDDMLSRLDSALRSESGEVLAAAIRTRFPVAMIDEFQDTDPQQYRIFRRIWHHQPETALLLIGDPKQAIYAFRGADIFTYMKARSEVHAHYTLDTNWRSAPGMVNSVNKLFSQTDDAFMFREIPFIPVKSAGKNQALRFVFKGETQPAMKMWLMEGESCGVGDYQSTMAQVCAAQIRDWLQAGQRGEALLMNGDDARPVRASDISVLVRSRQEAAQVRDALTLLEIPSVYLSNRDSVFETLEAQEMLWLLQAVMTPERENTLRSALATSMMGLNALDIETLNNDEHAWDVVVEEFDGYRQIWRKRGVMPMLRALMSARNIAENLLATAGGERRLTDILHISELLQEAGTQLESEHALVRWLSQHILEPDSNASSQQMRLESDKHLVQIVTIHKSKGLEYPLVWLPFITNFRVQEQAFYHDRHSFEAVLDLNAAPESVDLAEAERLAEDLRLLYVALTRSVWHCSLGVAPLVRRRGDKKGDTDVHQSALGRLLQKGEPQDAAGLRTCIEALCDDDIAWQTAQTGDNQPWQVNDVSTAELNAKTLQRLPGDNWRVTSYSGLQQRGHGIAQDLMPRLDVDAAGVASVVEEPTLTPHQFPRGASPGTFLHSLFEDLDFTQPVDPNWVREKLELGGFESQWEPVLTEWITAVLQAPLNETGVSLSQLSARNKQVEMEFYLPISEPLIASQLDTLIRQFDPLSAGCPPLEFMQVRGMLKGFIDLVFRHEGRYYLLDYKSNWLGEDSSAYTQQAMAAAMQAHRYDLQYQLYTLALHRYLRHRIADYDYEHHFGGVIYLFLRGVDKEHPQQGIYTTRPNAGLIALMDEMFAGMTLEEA

[4] = target: Peroxisome proliferator-activated receptor gamma/Nuclear receptor coactivator 3 (Homo sapiens, UniProt P37231); assay: TR-FRET dose response biochemical High Throughput Screening assay for agonists of the steroid receptor coactivator 3 (SRC-3) recruitment by the peroxisome proliferator-activated receptor gamma (PPAR gamma): non-selective agonists. [Related pubchem assays: 1301 (Confirmation screen.), 1048 (Primary screen.)]; type: functional
[5] = target: Peroxisome proliferator-activated receptor gamma/Nuclear receptor coactivator 2 (Homo sapiens, UniProt P37231); assay: (§1) TR-FRET dose response biochemical High Throughput Screening assay for agonists of the steroid receptor coactivator 2 (SRC-2) recruitment by the peroxisome proliferator-activated receptor gamma (PPAR gamma): non-selective agonists. [Related pubchem assays: 1297, 1032 ]; type: functional
[6] = target: Peroxisome proliferator-activated receptor gamma/Nuclear receptor coactivator 1 (Homo sapiens, UniProt P37231); assay: as §1, with “1 (SRC-1)” for “2 (SRC-2)”, “assays (depositor defined):AID1300, AID1808, AID504735, AID631]” for “assays: 1297, 1032 ]”; type: protein assay
cells = type: functional
[7] = target: T2, Mannose-6-phosphate isomerase (Homo sapiens, UniProt P34949); assay: MPI inhibition at elevated mannose 6-phosphate – biochemical, fluorescence intensity, high mannose 6-phosphate, primary screen (AID 1220)
T2 sequence (P34949 whole entry): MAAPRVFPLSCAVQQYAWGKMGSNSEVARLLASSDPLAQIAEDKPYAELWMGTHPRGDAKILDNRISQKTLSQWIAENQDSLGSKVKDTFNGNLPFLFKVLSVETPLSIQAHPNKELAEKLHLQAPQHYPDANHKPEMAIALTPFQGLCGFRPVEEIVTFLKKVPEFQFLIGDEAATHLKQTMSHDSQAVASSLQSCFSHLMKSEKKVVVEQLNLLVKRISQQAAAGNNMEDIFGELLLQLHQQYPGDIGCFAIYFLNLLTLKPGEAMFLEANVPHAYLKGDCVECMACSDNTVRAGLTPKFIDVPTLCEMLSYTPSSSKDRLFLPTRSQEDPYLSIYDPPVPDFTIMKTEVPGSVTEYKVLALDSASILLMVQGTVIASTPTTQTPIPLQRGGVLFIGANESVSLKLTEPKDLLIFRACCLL

[8] = THP-1 cell cytotoxicity, dose response, cytotoxicity control for non-replicating M. tuberculosis project (AID 489025); type: functional
Nonstructural protein 1 = Nonstructural protein 1 (Influenza A virus, UniProt Q194T2); type: functional, Influenza A virus (A/California/07/2009(H1N1))
[9] = target: Glucose-6-phosphate 1-dehydrogenase (Homo sapiens, UniProt P11413); assay: inhibition of Homo sapiens G6PD, dose series – biochemical, fluorescence, selectivity assay for P. falciparum G6PD inhibitor project, dose response (AID 504792); type: functional
[10] = Vero E6 cell cytotoxicity, dose response, cytotoxicity control for non-replicating M. tuberculosis project, secondary assay (AID 492998); type: functional, VeroE6; conditions: Vero C1008
[11] = target: T2, Mannose-6-phosphate isomerase; assay: MPI enzyme activity inhibition – biochemical, fluorescence intensity, coupled assay, primary screen (AID 1209)
[12] = microbe, parasite or virus in culture; type: functional; conditions: Mycobacterium tuberculosis
Cytochrome P450 3A4 = Cytochrome P450 3A4 (Homo sapiens, UniProt P08684);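 note: CYP3A4 tested as one member of a cytochrome P450 panel screen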
Cytochrome P450 2C9 = Cytochrome P450 2C9 (Homo sapiens, UniProt P11712)
[13] = target: T3, Runt-related transcription factor 1/Core-binding factor subunit beta (Homo sapiens, UniProt Q01196+Q13951); assay: Runt domain/CBFb-SMMHC interaction disruptors – biochemical, TR-FRET (AID 1438); type: protein assay
[14] = target: T3, Runt-related transcription factor 1/Core-binding factor subunit beta; assay: disruptors of Runt domain/CBFb-SMMHC interaction – biochemical, FRET, Cerulean-Runt, Venus-CBFb-SMMHC, uHTS, […] (AID 1434); type: protein assay
Cytochrome P450 2C19 = Cytochrome P450 2C19 (Homo sapiens, UniProt P33261); assay: Cytochrome panel assay with activity outcomes. Panel member name: p450-cyp2c19 Compounds with AC50 equal or less than 10 uM are considered active; type: functional

Peroxisome proliferator-activated receptor gamma/Nuclear receptor coactivator 2, sequence (P37231 whole entry): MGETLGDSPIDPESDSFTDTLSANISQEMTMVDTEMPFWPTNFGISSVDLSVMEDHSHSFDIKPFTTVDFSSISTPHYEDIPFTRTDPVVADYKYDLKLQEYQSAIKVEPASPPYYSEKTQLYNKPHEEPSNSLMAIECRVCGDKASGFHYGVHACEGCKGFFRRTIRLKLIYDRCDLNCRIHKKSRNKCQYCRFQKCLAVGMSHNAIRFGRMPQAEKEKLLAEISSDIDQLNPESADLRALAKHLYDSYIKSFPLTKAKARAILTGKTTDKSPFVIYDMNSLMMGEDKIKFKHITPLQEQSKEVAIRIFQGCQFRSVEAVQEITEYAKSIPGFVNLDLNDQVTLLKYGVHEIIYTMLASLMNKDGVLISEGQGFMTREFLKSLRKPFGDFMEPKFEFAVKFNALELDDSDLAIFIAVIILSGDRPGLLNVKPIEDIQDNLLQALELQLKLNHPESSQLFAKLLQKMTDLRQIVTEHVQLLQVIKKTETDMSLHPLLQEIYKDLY
Peroxisome proliferator-activated receptor gamma/Nuclear receptor coactivator 2, sequence (Q15596 whole entry, further chain): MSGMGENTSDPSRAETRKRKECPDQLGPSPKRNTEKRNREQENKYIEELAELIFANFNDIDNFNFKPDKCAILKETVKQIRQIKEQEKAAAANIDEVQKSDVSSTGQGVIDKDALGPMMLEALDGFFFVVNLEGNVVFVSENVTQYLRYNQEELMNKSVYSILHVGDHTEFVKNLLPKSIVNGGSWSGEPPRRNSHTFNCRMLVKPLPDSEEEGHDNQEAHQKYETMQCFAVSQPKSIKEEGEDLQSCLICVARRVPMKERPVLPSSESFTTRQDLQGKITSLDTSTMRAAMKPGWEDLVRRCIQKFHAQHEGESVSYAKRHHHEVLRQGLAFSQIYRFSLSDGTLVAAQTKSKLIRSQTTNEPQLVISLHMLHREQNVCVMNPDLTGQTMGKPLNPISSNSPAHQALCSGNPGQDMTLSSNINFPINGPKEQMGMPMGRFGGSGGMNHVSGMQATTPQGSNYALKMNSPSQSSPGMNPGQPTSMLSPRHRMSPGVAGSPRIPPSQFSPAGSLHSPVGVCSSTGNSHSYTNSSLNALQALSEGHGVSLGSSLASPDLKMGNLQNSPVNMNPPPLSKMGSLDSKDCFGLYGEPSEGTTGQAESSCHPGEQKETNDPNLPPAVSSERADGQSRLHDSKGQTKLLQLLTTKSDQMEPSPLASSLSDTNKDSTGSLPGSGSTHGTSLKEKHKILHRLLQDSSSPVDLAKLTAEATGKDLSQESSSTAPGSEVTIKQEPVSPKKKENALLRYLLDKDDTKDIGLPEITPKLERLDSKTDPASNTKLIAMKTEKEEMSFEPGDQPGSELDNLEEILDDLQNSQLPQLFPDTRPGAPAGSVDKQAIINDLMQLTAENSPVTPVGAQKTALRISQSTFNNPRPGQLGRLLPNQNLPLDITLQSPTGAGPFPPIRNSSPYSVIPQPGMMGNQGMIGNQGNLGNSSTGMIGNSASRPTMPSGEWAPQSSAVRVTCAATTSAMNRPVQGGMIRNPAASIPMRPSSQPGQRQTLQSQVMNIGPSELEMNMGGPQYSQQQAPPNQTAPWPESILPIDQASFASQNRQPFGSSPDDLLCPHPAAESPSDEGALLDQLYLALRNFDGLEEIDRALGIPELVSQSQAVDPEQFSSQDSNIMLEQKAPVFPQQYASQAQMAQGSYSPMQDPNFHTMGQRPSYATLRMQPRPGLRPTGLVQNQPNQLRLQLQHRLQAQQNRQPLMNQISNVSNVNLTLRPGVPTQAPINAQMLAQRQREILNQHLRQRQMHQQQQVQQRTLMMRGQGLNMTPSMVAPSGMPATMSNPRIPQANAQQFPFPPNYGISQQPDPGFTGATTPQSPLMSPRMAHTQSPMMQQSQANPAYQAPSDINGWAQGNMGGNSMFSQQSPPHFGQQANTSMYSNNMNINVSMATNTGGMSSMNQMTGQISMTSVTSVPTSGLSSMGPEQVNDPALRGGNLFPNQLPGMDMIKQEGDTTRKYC
Peroxisome proliferator-activated receptor gamma/Nuclear receptor coactivator 3, sequence (P37231 whole entry): as the sequence (P37231 whole entry) above
Peroxisome proliferator-activated receptor gamma/Nuclear receptor coactivator 3, sequence (Q9Y6Q9 whole entry, further chain): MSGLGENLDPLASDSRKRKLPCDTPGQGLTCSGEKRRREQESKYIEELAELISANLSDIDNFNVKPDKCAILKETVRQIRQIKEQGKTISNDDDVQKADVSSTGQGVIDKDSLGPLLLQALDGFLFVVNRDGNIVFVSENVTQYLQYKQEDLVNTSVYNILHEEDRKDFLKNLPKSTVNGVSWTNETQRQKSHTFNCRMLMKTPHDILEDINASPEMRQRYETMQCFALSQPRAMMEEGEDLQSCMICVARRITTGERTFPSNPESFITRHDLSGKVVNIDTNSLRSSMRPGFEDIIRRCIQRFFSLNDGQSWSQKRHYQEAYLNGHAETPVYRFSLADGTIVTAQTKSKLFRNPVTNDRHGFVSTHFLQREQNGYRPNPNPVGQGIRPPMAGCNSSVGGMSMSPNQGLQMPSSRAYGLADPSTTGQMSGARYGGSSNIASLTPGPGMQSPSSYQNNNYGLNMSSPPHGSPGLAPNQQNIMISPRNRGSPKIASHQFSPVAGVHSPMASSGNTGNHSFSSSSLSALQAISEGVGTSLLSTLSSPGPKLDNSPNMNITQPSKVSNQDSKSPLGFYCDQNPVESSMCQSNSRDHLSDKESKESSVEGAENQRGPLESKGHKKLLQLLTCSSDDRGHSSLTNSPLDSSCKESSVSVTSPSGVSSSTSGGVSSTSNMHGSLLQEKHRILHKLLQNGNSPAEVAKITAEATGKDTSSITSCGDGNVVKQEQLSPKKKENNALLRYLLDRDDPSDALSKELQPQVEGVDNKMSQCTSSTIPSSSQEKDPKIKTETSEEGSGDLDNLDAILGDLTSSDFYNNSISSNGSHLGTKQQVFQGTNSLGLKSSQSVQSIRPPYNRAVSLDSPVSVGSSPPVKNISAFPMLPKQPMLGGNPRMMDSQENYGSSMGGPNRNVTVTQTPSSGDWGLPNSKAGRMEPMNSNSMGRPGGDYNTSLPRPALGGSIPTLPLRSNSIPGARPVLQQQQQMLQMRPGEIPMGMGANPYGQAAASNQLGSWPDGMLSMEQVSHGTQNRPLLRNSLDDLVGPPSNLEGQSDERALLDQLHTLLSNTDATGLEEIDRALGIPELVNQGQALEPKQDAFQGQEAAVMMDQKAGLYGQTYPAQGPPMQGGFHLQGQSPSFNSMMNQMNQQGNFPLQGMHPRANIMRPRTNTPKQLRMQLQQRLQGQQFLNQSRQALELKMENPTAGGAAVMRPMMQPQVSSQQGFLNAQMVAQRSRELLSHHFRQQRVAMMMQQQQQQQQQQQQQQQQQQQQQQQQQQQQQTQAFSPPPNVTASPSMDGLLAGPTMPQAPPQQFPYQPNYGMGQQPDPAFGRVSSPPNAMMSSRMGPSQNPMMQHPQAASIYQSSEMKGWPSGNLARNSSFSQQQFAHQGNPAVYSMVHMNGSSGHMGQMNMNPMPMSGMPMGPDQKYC
T3 sequence (Q01196 whole entry, the tested form may be a part): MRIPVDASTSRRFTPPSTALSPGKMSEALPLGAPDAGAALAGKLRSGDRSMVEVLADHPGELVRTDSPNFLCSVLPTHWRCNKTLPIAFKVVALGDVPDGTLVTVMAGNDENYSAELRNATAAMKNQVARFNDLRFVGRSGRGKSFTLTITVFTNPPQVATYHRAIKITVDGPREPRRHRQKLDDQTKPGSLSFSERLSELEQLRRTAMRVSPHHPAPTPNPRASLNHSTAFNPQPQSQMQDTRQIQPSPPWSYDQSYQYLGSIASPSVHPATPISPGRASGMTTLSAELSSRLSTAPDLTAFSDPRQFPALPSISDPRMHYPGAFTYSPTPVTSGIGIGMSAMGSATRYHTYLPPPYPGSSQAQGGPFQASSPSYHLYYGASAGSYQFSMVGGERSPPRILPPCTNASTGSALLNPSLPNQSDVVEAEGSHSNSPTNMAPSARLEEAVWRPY
T3 sequence (Q13951 whole entry, the tested form may be a part): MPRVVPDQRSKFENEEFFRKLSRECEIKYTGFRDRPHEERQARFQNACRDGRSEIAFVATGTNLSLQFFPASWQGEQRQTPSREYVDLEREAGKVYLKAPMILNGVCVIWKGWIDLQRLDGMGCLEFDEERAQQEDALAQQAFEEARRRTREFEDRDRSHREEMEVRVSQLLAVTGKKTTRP
Cytochrome P450 3A4, sequence (P08684 whole entry): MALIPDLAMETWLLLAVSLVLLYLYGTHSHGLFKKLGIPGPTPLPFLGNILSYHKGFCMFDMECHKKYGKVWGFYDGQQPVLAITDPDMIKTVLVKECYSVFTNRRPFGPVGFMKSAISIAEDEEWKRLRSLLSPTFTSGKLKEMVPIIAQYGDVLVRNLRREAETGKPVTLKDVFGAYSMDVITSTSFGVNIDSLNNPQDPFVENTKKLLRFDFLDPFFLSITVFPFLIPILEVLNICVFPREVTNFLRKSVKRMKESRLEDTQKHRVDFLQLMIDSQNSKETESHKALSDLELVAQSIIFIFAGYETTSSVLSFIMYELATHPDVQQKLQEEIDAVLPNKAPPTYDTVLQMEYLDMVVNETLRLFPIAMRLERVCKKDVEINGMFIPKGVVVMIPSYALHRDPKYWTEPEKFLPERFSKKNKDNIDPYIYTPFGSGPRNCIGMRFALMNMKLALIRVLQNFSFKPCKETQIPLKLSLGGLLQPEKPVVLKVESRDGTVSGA

CCCCCC(CC(=O)NO)C(=O)NC(C(=O)N1CCCC1CO)C(C)C (stereo not given)
IC50 [1]: 77.6 µM (inactive) | EC50 [2]: > 50 µM (active) | IC50 [3]: 3.59 µM (active) | AC50 (Paired box protein Pax-8): 5.27 µM (active) | IC50 (Exodeoxyribonuclease V): > 39.5 µM (inactive)

Cc1cccc[n+]1C1C(c2ccccc2)C(C#N)=C([C-](C#N)C#N)NC1(O)C1CC1 (stereo not given)
EC50 [4]: > 79.4 µM (not active) | EC50 [5]: > 79.4 µM (not active) | EC50 [6]: > 79.4 µM (inactive)

Cc1cc2nc(-c3ccc(SCc4ccccc4C#N)nc3)[nH]c2cc1C
EC50 [4]: > 79.4 µM (not active) | EC50 [5]: > 79.4 µM (not active) | EC50 [6]: > 79.4 µM (inactive)

C/[N+]([O-])=C\c1ccc2cccc(O)c2n1
IC50 (cells): 11.6 µM (active) | IC50 [7]: 11.8 µM (active) | CC50 [8]: 35 µM (active) | IC50 (Nonstructural protein 1): 1.68 µM (active) | IC50 [9]: > 80 µM (inactive) | CC50 [10]: 15.6 µM (active) | IC50 [11]: 16.4 µM (active)

FC(F)(Cl)c1nnc2ccc(Cl)nn12
CC50 [12]: 16.5 µM (active) | IC50 (cells): 0.75 µM (active) | CC50 [8]: 10.8 µM (active) | CC50 [10]: 16.7 µM (active)

Cc1ccc(S(=O)(=O)NCC2CCC(C(=O)O)CC2)cc1 (stereo not given)
AC50 (Cytochrome P450 3A4): inconclusive | AC50 (Cytochrome P450 2C9): 100 nM (inconclusive)

Oc1ccc(/N=C/c2ccc(-c3cccs3)s2)cc1
EC50 [4]: 73 µM (not active) | EC50 [5]: 12 µM (not active) | EC50 [6]: 8.81 µM (active) | IC50 [13]: > 100 µM (inactive) | IC50 [14]: 4.2 µM (active)

COc1ccccc1NC(=O)N1CCC(c2nnc(SCC(N)=O)n2C)CC1
AC50 (Cytochrome P450 3A4): inconclusive | AC50 (Cytochrome P450 2C19): inconclusive

FC(F)Oc1ccc(NC(S)=NCc2nc3ccccc3[nH]2)cc1
IC50 [1]: > 119 µM (inactive) | IC50 (Exodeoxyribonuclease V): > 119 µM (inactive)

CCCOc1ccc(C2C(C(=O)OC)=CN(CCOC)C=C2C(=O)OC)cc1
IC50 [13]: > 100 µM (inactive) | IC50 [14]: 2.22 µM (active)

— ChEMBL document CHEMBL1201862, “PubChem BioAssay data set” (2004)
